This is an account of results in US20230322846A9, “NEUROACTIVE STEROIDS AND THEIR METHODS OF USE” (SAGE THERAPEUTICS, INC., priority 2018, published 2023).

As a reminder, the IC50 is the concentration at which inhibition is half-maximal.

The experiment addresses [35S]-TBPS binding, rat brain cortical membranes. Kind of experiment: Steroid inhibition of [35S]-TBPS binding. The settings on record: 3 nM [35S]-TBPS, in the presence of 5 mM GABA. The essentials: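 In the presence of […], compounds (DMSO 0.5% final) competed with 3 nM [35S]-TBPS for Sprague-Dawley rat cortical membranes, pH 7.4 phosphate buffer, 90 min, room temperature. Filtration and scintillation counting; specific binding defined by […]; IC50 and maximal inhibition fitted per experiment, averaged as mean ± SEM.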
Regarding `COC[C@@]1(O)CC[C@@]2(C)[C@H](CC[C@@H]3[C@@H]2CC[C@@]2(C)[C@H]3CC[C@]2(O)[C@@H](C)Cn2cc(C#N)cn2)C1` [Example 351, 1-((S)-2-((3R,5R,8R,9S,10S,13S,14S,17S)-3,17-dihydroxy-3-(methoxymethyl)-10,13-dimethylhexadecahydro-1H-cyclopenta[a]phenanthren-17-yl)propyl)-1H-pyrazole-4-carbonitrile], the IC50 is 1 to 10 µM.

In the case of `COC[C@@]1(O)CC[C@@]2(C)[C@H](CC[C@@H]3[C@@H]2CC[C@@]2(C)[C@H]3CC[C@]2(O)[C@H](C)Cn2cc(C#N)cn2)C1` [Example 352, 1-((R)-2-((3R,5R,8R,9S,10S,13S,14S,17S)-3,17-dihydroxy-3-(methoxymethyl)-10,13-dimethylhexadecahydro-1H-cyclopenta[a]phenanthren-17-yl)propyl)-1H-pyrazole-4-carbonitrile], the IC50 was 1 to 10 µM.

Consider `COC[C@@]1(O)CC[C@H]2[C@H](CC[C@@H]3[C@@H]2CC[C@@]2(C)[C@H]3CC[C@]2(O)[C@H](C)Cn2cc(C#N)cn2)C1` [Example 353], for which the IC50 fell in the range of 1 to 10 µM.

Take `COC[C@@]1(O)CC[C@H]2[C@H](CC[C@@H]3[C@@H]2CC[C@@]2(C)[C@H]3CC[C@]2(O)[C@@H](C)Cn2cc(C#N)cn2)C1` [Example 354]: the 50% inhibitory concentration (IC50) fell in the range of 1 to 10 µM.

With `C[C@@]1(O)CC[C@H]2[C@H](CC[C@@H]3[C@@H]2CC[C@]2(C)[C@@H]([C@H](C#N)Cn4cc(C#N)cn4)CC[C@@H]32)C1` [Example 355, 1-((S)-2-cyano-2-((3R,5R,8R,9R,10S,13S,14S,17R)-3-hydroxy-3,13-dimethylhexadecahydro-1H-cyclopenta[a]phenanthren-17-yl)ethyl)-1H-pyrazole-4-carbonitrile], the IC50 is < 0.1 µM.

Turning to `C[C@@]1(O)CC[C@H]2[C@H](CC[C@@H]3[C@@H]2CC[C@]2(C)[C@@H]([C@@H](C#N)Cn4cc(C#N)cn4)CC[C@@H]32)C1` [Example 356, 1-((R)-2-cyano-2-((3R,5R,8R,9R,10S,13S,14S,17R)-3-hydroxy-3,13-dimethylhexadecahydro-1H-cyclopenta[a]phenanthren-17-yl)ethyl)-1H-pyrazole-4-carbonitrile], the 50% inhibitory concentration (IC50) is < 0.1 µM.

On to `CC[C@@]1(O)CC[C@@]2(C)[C@@H](CC[C@@H]3[C@@H]2CC[C@]2(C)[C@@H]([C@@H](C)Cn4nnc(C)n4)CC[C@@H]32)C1` [Example 359, (3R,5S,8R,9S,10S,13S,14S,17R)-3-ethyl-10,13-dimethyl-17-((R)-1-(5-methyl-2H-tetrazol-2-yl)propan-2-yl)hexadecahydro-1H-cyclopenta[a]phenanthren-3-ol], for which the IC50 is ≥ 10 µM.

On to `CC[C@@]1(O)CC[C@@]2(C)[C@@H](CC[C@@H]3[C@@H]2CC[C@]2(C)[C@@H]([C@H](C)Cn4nnc(C)n4)CC[C@@H]32)C1` [Example 360, (3R,5S,8R,9S,10S,13S,14S,17R)-3-ethyl-10,13-dimethyl-17-((S)-1-(5-methyl-2H-tetrazol-2-yl)propan-2-yl)hexadecahydro-1H-cyclopenta[a]phenanthren-3-ol], for which the IC50 was in the range of 1 to 10 µM.

As to `CCC[C@@]1(O)CC[C@H]2[C@H](CC[C@@H]3[C@@H]2CC[C@]2(C)[C@@H]([C@@H](C)Cn4cc(C#N)cn4)[C@H](O)C[C@@H]32)C1` [Example 362, 1-((R)-2-((3R,5R,8R,9R,10S,13S,14S,16R,17R)-3,16-dihydroxy-13-methyl-3-propylhexadecahydro-1H-cyclopenta[a]phenanthren-17-yl)propyl)-1H-pyrazole-4-carbonitrile], the half-inhibitory concentration (IC50) is 1 to 10 µM.
